Measurements taken from patent US9708318B2, “Bicyclic heterocycles as FGFR4 inhibitors” (Incyte Corporation, priority 2015, dated 2017).
pIC50: −log10 of the molar value. Read-outs that look alike come from different tables or passages of the source.

Legend:
FGFR2 = FGFR2 (Homo sapiens (Human), UniProt P21802); test: FGFR Enzymatic Assay (FRET peptide phosphorylation), FGFR2; type: biochemical
Method: (§1) The inhibitor potency of the exemplified compounds was measured in an enzyme assay that measures peptide phosphorylation using FRET measurements to detect product formation. Inhibitors were serially diluted in DMSO and a volume of 0.5 μL was transferred to the wells of a 384-well plate.
(§2) The enzymes were purchased from Millipore or Invitrogen.
(§3) GraphPad prism3 was used to analyze the data.

FGFR3 enzyme = FGFR3 enzyme (Homo sapiens (Human), UniProt P22607); test: FGFR Enzymatic Assay (FRET peptide phosphorylation), FGFR3; type: biochemical; settings: for pIC50: read-out: FGFR3 IC50; for FGFR1/FGFR3 IC50 ratio: FGFR3 selectivity
Chain of FGFR3 enzyme (P22607 23-806): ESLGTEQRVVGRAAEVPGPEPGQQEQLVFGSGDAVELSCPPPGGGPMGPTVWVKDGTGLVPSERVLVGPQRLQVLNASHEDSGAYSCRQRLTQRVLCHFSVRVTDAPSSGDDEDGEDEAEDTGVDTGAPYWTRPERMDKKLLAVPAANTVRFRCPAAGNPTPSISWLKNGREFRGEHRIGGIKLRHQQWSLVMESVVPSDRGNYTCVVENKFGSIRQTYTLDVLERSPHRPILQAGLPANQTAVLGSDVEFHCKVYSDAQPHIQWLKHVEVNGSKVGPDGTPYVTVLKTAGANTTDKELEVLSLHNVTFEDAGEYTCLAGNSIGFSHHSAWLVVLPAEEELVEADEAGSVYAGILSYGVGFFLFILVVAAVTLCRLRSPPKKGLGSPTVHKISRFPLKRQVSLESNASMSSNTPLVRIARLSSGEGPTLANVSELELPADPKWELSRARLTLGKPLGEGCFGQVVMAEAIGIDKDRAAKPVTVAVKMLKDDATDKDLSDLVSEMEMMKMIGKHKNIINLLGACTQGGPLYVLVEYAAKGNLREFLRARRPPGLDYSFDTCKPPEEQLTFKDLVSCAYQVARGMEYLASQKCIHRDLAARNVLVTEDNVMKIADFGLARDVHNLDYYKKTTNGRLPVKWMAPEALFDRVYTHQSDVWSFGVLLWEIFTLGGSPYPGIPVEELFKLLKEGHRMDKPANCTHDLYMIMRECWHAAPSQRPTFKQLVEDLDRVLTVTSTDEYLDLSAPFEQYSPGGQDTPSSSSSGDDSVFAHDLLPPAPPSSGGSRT
Method: as §1, §3

FGFR1 = FGFR1 (Homo sapiens (Human), UniProt P11362); test: FGFR Enzymatic Assay (FRET peptide phosphorylation), FGFR1; settings: for pIC50: read-out: FGFR1 IC50; for IC50: FGFR1 IC50 (nM)
Chain of FGFR1 (P11362 22-822): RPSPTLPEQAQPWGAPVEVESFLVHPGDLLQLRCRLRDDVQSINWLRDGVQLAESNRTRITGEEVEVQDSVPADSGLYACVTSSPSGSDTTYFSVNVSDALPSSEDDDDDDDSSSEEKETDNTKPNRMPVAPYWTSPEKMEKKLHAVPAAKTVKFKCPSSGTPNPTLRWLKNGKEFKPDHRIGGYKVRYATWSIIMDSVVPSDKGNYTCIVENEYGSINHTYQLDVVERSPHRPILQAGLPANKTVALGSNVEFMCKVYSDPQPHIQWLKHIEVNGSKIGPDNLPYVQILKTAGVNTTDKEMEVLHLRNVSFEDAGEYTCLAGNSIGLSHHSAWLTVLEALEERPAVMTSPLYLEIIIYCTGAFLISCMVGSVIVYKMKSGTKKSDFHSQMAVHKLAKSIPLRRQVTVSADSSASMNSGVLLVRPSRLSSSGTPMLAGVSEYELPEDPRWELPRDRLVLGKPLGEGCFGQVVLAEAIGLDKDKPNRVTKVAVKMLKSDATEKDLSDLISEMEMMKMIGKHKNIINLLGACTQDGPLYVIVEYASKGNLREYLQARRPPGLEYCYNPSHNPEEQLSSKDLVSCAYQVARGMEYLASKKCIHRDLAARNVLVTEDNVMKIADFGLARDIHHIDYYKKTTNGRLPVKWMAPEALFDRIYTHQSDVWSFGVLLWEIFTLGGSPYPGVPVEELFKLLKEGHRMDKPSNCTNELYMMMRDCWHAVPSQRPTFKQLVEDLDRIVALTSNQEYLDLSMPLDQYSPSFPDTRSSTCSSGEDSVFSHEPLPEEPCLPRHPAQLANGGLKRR

FGFR4 = FGFR4 (Homo sapiens (Human), UniProt P22455); test: FGFR Enzymatic Assay (FRET peptide phosphorylation), FGFR4; type: biochemical; settings: for FGFR1/FGFR4 IC50 ratio / FGFR2/FGFR4 IC50 ratio / FGFR3/FGFR4 IC50 ratio: FGFR4 selectivity
Chain of FGFR4 (P22455 22-802): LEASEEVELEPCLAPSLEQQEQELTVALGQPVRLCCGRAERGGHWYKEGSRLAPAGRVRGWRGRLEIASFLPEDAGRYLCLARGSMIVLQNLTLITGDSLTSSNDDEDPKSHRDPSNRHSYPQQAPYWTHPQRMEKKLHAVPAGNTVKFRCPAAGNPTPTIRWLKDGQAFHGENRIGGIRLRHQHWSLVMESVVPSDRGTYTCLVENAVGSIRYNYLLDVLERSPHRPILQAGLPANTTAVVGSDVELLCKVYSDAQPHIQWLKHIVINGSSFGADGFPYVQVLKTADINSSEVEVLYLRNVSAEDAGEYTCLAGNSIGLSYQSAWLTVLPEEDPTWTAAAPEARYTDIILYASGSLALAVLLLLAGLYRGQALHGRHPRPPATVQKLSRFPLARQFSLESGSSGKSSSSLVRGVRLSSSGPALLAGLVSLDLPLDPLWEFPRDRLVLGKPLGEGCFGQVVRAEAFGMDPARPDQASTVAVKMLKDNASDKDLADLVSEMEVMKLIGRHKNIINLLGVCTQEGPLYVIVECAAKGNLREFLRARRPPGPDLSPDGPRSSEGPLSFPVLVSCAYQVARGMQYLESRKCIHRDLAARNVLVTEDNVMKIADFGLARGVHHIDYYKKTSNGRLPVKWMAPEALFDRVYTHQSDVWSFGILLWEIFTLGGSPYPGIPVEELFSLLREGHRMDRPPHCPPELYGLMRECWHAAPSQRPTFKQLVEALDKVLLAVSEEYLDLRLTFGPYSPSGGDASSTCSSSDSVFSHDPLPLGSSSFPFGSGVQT
Method: as §1, §2, §3

[1] = pre-incubated for 5 to 10 minutes

Chain of FGFR2 (P21802 22-821): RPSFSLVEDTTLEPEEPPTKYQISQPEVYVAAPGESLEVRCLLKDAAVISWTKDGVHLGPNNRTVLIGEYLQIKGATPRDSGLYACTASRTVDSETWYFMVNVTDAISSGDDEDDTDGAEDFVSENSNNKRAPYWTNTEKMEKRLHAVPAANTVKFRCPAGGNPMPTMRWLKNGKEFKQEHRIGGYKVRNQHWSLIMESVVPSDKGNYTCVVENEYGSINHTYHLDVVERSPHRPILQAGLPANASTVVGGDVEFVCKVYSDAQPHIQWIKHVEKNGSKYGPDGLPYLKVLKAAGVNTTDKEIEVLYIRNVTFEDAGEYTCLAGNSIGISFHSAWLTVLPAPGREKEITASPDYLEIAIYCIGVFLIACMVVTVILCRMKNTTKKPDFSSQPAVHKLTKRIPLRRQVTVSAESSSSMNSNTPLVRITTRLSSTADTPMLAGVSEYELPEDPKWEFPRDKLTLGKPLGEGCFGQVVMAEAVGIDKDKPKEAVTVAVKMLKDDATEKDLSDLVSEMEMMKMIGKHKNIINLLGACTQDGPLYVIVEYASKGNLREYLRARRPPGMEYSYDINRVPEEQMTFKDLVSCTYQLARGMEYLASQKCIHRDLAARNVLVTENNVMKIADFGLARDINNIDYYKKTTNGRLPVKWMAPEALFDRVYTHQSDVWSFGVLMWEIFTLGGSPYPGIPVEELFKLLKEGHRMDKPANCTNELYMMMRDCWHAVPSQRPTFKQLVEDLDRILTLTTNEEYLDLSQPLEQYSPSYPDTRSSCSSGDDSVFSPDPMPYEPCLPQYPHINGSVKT

Structure (SMILES)	pIC50 (FGFR2; [1])	pIC50 (FGFR2; pre-incubated for 4 hours)	pIC50 (FGFR3 enzyme)	pIC50 (FGFR1; [1])	pIC50 (FGFR1; pre-incubated for 4 hours)	FGFR1/FGFR4 IC50 ratio (FGFR4; [1])	FGFR2/FGFR4 IC50 ratio (FGFR4; [1])	FGFR3/FGFR4 IC50 ratio (FGFR4; [1])	FGFR1/FGFR4 IC50 ratio (FGFR4; pre-incubated for 4 hours)	FGFR2/FGFR4 IC50 ratio (FGFR4; pre-incubated for 4 hours)	FGFR3/FGFR4 IC50 ratio (FGFR4; pre-incubated for 4 hours)	pIC50 (FGFR4; [1])	pIC50 (FGFR4; pre-incubated for 4 hours)	pIC50 (FGFR3 enzyme; [1])	pIC50 (FGFR3 enzyme; pre-incubated for 4 hours)	FGFR1/FGFR3 IC50 ratio (FGFR3 enzyme; pre-incubated for 4 hours)	IC50 (FGFR1; [1])	IC50 (FGFR1; pre-incubated for 4 hours)
COc1cc(OC)c(F)c(N2Cc3cnc(-c4cc(N)ccc4C)cc3C3(CC3)C2=O)c1F [Example 1, 6′-(5-amino-2-methylphenyl)-2′-(2,6-difluoro-3,5-dimethoxyphenyl)-1′H-spiro[cyclopropane-1,4′-[2,7]naphthyridin]-3′(2′H)-one]	< 6.70	< 6.70	< 6.70	< 6.70	< 6.70	>25	>25	>50	>25	>25	>25	6.70 to 7.52	6.70 to 7.52					
COc1cc(OC)c(F)c(N2Cc3cnc(-c4cc(N)c(F)cc4C)cc3C3(CC3)C2=O)c1F [Example 2, 6′-(5-amino-4-fluoro-2-methylphenyl)-2′-(2,6-difluoro-3,5-dimethoxyphenyl)-1′H-spiro[cyclopropane-1,4′-[2,7]naphthyridin]-3′(2′H)-one]	< 6.70	< 6.70		< 6.70	< 6.70	>10	>10	>10	>10	>10	>10	6.70 to 7.52	6.70 to 7.52	< 6.70	< 6.70			
COc1cc(OC)c(F)c(N2Cc3cnc(-c4cc(N)ccc4C#N)cc3C3(CC3)C2=O)c1F [Example 3, 4-amino-2-(2′-(2,6-difluoro-3,5-dimethoxyphenyl)-3′-oxo-2′,3′-dihydro-1′H-spiro[cyclopropane-1,4′-[2,7]naphthyridine]-6′-yl)benzonitrile]	< 6.70	< 6.70		< 6.70	< 6.70	>25	>25	>25	>25	>25	>10	7.52 to 8.00	7.52 to 8.00	< 6.70	< 6.70			
COc1cc(OC)c(F)c(N2Cc3cnc(-c4cncc(N)c4)cc3C3(CC3)C2=O)c1F [Example 4, 6′-(5-aminopyridin-3-yl)-2′-(2,6-difluoro-3,5-dimethoxyphenyl)-1′H-spiro[cyclopropane-1,4′-[2,7]naphthyridin]-3′(2′H)-one]	7.52 to 8.00	6.70 to 7.52				>10	>10	>5	>25	>10	>10	> 8.00	> 8.00	7.52 to 8.00	6.70 to 7.52	>1	30 to 200 nM	30 to 200 nM
COc1cc(OC)c(F)c(N2Cc3cnc(-c4cncc(F)c4)cc3C3(CC3)C2=O)c1F [Example 5, 2′-(2,6-difluoro-3,5-dimethoxyphenyl)-6′-(5-fluoropyridin-3-yl)-1′H-spiro[cyclopropane-1,4′-[2,7]naphthyridin]-3′(2′H)-one]	7.52 to 8.00	7.52 to 8.00				>10	>5	>4	>10	>5	>1	> 8.00	> 8.00	7.52 to 8.00	7.52 to 8.00	>3	30 to 200 nM	30 to 200 nM
CCn1cc(CN2C(=O)N(c3c(F)c(OC)cc(OC)c3F)Cc3cnc(-c4cnn(C)c4)cc32)cn1 [Example 145, 3-(2,6-difluoro-3,5-dimethoxyphenyl)-1-((1-ethyl-1H-pyrazol-4-yl)methyl)-7-(1-methyl-1H-pyrazol-4-yl)-3,4-dihydropyrido[4,3-d]pyrimidin-2(1H)-one]	> 8.00			> 8.00										> 8.00				
COc1cc(OC)c(F)c(N2Cc3cnc(-c4cnn(C5(C#N)CCC5)c4C)cc3C3(CC3)C2=O)c1F [Example 149, 1-(4-(2′-(2,6-difluoro-3,5-dimethoxyphenyl)-3′-oxo-2′,3′-dihydro-1′H-spiro[cyclopropane-1,4′-[2,7]naphthyridine]-6′-yl)-5-methyl-1H-pyrazol-1-yl)cyclobutanecarbonitrile]		> 8.00													> 8.00			[…]
CCN1C(=O)N(c2c(F)c(OC)cc(OC)c2F)Cc2cnc(-c3cnn(C)c3)cc21 [Example 169, 3-(2,6-difluoro-3,5-dimethoxyphenyl)-1-ethyl-7-(1-methyl-1H-pyrazol-4-yl)-3,4-dihydropyrido[4,3-d]pyrimidin-2(1H)-one]	> 8.00	> 8.00		> 8.00	> 8.00									> 8.00	> 8.00			
